One block for each compound: values may come before it.
Assays:
[1] = biological target: T1, ACE (Homo sapiens, UniProt P12821); experiment: Purified peptidase assay, ACE; format: biochemical; conditions: recombinant purified human enzyme; for prodrugs the active form was tested
T1 construct: purchased R&D Systems (Minneapolis, MN)
Experimental: (§1) Purified recombinant human enzymes were purchased from R&D Systems (Minneapolis, MN). […] Each substrate was diluted to 100 μM in the assay buffer recommended for each enzyme by the supplier. […] To these, 5 μl of diluted enzyme was added, followed by 10 μl of the quenched peptide substrate. The plates were incubated at 37°C until at least 10% substrate turnover or 5 μM product had formed. Fluorescence was measured using a Tecan Safire II (Excitation 320 nm/Emission 420 nm). Each plate included a standard curve of reaction product and positive (no enzyme) and negative (dimethyl sulfoxide vehicle) controls. Dose-response data were plotted and inhibition values (IC50) determined by linear regression analysis using GraphPad Prism (GraphPad Software, La Jolla, CA).

[2] = biological target: T2, NEP (Homo sapiens, UniProt P08473); experiment: Purified peptidase assay, NEP; format: biochemical; conditions: recombinant purified human enzyme; for prodrugs the active form was tested
T2 construct: purchased R&D Systems (Minneapolis, MN)
T2 sequence (P08473 whole entry): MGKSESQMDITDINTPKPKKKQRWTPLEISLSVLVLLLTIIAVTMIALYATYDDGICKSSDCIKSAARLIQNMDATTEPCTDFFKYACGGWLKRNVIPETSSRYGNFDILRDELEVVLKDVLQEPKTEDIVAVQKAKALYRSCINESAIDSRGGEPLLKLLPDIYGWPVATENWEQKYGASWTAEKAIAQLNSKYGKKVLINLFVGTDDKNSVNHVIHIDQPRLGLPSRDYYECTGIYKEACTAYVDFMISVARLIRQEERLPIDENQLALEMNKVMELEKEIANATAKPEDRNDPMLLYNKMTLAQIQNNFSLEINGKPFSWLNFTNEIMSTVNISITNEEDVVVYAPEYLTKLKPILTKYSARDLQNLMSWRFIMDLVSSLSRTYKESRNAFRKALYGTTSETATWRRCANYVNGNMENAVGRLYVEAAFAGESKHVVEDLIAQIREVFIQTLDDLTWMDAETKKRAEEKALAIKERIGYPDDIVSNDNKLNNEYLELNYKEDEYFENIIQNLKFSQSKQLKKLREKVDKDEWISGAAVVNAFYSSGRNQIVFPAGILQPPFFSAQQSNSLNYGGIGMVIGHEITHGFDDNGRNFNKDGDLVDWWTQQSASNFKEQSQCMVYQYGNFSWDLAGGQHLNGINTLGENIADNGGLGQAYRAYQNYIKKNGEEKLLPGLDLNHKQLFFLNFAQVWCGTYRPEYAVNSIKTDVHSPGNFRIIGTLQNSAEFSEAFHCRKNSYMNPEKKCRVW
Experimental: as §1

[3] = biological target: T3, aminopeptidase N (Homo sapiens, UniProt P15144); experiment: Purified peptidase assay, APN; format: biochemical; conditions: recombinant purified human enzyme; for prodrugs the active form was tested
T3 construct: purchased R&D Systems (Minneapolis, MN)
T3 sequence (P15144 whole entry): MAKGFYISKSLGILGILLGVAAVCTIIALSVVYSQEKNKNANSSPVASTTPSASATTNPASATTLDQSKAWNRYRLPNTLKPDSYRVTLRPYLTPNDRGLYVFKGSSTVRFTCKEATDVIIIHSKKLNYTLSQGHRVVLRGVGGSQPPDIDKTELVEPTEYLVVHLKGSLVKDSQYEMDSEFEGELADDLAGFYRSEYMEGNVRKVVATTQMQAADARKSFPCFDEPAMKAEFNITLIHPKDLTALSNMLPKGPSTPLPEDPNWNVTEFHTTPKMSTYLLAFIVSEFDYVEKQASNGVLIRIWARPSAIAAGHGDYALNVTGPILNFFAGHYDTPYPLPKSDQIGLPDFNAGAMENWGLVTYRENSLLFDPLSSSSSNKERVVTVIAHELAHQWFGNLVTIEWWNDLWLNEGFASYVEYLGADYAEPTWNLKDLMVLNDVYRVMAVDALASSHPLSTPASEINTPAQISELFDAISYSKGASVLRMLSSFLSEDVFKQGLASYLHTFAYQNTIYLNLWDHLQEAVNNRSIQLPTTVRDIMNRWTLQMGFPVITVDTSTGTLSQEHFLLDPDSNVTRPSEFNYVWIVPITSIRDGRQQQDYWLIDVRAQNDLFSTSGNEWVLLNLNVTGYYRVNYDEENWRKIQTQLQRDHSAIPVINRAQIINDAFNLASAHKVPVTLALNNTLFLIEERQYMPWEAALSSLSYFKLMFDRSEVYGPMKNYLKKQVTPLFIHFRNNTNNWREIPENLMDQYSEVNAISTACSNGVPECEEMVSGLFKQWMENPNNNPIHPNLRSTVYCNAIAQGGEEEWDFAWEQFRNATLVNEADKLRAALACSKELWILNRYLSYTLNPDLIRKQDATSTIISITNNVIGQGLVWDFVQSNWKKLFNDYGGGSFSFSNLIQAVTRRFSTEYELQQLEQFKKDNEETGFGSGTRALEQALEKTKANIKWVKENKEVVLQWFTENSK
Experimental: as §1

[4] = biological target: T4, puromycin-sensitive aminopeptidase (Homo sapiens, UniProt P55786); experiment: Purified peptidase assay, PSA; format: biochemical; conditions: recombinant purified human enzyme; for prodrugs the active form was tested
T4 construct: purchased R&D Systems (Minneapolis, MN)
T4 sequence (P55786 whole entry): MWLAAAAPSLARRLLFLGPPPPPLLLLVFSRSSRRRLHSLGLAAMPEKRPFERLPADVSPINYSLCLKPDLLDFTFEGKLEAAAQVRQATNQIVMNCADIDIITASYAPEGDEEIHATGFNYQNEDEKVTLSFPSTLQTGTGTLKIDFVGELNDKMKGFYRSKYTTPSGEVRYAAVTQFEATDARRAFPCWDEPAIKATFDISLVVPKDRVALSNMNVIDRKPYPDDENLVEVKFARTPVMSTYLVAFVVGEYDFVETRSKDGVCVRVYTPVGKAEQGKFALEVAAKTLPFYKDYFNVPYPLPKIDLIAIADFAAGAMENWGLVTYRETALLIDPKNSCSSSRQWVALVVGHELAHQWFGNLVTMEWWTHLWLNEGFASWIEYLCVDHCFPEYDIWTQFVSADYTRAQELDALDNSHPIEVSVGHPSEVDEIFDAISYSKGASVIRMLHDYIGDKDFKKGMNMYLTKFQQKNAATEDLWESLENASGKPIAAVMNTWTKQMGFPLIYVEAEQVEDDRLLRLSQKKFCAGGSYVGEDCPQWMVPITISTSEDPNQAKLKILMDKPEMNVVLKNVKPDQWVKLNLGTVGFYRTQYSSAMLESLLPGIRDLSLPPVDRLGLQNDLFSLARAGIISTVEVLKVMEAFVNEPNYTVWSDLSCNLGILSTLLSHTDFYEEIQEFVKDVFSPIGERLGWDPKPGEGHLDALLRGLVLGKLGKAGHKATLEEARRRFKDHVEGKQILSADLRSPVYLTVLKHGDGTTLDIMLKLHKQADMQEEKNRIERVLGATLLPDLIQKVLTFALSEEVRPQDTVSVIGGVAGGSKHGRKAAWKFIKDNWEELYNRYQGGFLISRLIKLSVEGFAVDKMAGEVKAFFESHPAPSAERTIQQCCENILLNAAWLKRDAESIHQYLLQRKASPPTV
Experimental: as §1

[5] = biological target: T5, IDE (Homo sapiens, UniProt P14735); experiment: Purified peptidase assay, IDE; format: biochemical; conditions: recombinant purified human enzyme; for prodrugs the active form was tested
T5 construct: purchased R&D Systems (Minneapolis, MN)
T5 sequence (P14735 1-1019): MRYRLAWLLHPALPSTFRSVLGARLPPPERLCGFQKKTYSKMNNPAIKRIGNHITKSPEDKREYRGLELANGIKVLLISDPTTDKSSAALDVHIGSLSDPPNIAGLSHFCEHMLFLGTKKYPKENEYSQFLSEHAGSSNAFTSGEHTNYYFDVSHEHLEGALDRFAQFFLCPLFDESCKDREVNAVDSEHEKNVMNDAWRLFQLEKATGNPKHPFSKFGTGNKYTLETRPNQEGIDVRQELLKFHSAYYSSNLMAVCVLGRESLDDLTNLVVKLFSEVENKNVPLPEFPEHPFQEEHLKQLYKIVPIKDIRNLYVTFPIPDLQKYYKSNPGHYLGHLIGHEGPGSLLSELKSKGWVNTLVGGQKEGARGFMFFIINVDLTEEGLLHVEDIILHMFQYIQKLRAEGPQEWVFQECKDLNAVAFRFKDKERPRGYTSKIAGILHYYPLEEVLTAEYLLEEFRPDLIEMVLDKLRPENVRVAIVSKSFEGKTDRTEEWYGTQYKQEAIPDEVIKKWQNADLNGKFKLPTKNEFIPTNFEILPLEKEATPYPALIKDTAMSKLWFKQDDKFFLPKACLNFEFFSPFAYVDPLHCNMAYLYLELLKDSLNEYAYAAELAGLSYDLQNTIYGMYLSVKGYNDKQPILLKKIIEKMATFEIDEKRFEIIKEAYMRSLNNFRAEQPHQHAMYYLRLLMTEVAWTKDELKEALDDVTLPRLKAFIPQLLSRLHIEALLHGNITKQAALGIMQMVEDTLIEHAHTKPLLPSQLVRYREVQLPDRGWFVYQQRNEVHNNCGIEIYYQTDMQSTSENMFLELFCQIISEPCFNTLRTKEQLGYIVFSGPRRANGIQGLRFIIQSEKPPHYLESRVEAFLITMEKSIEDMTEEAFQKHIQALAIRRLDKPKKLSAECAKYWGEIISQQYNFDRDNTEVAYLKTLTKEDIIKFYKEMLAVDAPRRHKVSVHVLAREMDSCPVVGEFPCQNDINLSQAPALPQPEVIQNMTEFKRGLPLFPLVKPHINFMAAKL
Experimental: as §1

[6] = biological target: T6, ECE-1 (Homo sapiens, UniProt P42892); experiment: biochemical; conditions: recombinant purified human enzyme; for prodrugs the active form was tested
T6 construct: purchased R&D Systems (Minneapolis, MN)
T6 sequence (P42892 1-770): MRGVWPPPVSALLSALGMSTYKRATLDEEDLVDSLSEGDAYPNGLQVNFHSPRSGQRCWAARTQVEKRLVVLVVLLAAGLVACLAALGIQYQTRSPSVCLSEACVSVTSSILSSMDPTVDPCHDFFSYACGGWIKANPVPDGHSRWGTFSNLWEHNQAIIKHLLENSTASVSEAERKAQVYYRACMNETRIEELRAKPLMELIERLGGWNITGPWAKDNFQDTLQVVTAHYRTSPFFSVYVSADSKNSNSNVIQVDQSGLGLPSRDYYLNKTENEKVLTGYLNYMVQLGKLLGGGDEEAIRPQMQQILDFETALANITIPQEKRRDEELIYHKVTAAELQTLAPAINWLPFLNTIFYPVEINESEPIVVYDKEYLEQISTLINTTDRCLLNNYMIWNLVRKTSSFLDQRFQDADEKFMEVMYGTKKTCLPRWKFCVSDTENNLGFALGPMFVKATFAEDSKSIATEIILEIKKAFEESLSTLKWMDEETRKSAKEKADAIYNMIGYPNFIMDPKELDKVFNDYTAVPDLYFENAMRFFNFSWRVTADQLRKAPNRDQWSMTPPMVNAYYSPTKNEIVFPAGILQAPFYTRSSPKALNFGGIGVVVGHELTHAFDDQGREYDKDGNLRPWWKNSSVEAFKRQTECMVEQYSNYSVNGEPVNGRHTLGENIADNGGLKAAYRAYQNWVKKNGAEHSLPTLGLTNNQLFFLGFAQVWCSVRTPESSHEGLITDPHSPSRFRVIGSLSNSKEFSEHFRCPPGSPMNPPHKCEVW
Experimental: as §1

[7] = biological target: T7, ECE-2 (Homo sapiens, UniProt P0DPD6); experiment: Purified peptidase assay, ECE-2; format: biochemical; conditions: recombinant purified human enzyme; for prodrugs the active form was tested
T7 construct: purchased R&D Systems (Minneapolis, MN)
T7 sequence (P0DPD6 1-811): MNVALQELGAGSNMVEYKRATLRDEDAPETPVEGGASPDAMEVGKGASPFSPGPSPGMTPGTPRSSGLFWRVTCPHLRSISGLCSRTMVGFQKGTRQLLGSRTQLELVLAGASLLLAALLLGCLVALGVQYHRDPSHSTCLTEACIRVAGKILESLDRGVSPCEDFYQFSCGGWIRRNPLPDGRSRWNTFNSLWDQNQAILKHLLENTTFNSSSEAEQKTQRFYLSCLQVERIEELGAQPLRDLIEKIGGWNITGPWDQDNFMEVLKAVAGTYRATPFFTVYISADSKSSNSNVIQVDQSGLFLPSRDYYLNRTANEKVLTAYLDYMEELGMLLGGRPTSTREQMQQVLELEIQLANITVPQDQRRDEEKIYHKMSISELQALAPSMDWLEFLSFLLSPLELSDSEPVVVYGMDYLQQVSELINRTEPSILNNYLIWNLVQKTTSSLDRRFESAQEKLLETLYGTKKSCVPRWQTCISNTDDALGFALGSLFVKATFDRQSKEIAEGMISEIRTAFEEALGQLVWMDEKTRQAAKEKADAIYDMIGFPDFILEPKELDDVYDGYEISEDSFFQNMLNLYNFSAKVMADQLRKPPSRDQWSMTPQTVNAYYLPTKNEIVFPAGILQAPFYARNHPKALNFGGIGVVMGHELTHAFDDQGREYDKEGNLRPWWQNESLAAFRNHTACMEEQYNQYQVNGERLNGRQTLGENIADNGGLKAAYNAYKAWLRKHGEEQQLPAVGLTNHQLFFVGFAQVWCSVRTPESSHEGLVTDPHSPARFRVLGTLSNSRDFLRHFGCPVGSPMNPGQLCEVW
Experimental: as §1

[8] = test system: castor oil–induced diarrhea; experiment: Castor oil–induced diarrhea model; format: in vivo, rat
Experimental: Experiments were performed with 6-to-7-week-old male Wistar rats obtained from Charles River Laboratories (Wilmington, MA). All animals were housed in Saint Louis University facilities under controlled conditions of temperature, humidity, and a 12-hour light/dark cycle. They were maintained on standard rodent chow with free access to water. Animal care and all procedures were performed in accordance with the National Institutes of Health Guide for the Care and Use of Laboratory Animals and approved by the university’s institutional animal care and use committee.
Animals were weighed and individually housed in metabolic cages containing white paper underneath to collect feces. Test compounds or vehicles were administered by oral gavage (5 ml/kg), and then at indicated times, 10 ml/kg body weight of 100% castor oil was administered by oral gavage to induce diarrhea. Animals had access to food within 5 minutes. Stool weight was recorded starting 15 minutes after castor oil administration and repeated every 15 minutes up to 4 hours. […] After 4 hours, animals were euthanized with CO2, and blood and tissues were collected for analyses.

[9] = biological target: T8, NEP (Rattus norvegicus, UniProt P07861); experiment: NEP enzyme activity in tissues after oral treatment; format: in vivo; conditions: normal rats; for Relative NEP inhibition, duodenum / Relative NEP inhibition, jejunum / Relative NEP inhibition, kidney / Relative NEP inhibition, lung: vs vehicle
T8 construct: NEP enzyme activity was measured in tissue homogenates; from tissue; host or cells: Wistar rat kidney, lung, duodenum, jejunum homogenates
T8 sequence (P07861 1-750): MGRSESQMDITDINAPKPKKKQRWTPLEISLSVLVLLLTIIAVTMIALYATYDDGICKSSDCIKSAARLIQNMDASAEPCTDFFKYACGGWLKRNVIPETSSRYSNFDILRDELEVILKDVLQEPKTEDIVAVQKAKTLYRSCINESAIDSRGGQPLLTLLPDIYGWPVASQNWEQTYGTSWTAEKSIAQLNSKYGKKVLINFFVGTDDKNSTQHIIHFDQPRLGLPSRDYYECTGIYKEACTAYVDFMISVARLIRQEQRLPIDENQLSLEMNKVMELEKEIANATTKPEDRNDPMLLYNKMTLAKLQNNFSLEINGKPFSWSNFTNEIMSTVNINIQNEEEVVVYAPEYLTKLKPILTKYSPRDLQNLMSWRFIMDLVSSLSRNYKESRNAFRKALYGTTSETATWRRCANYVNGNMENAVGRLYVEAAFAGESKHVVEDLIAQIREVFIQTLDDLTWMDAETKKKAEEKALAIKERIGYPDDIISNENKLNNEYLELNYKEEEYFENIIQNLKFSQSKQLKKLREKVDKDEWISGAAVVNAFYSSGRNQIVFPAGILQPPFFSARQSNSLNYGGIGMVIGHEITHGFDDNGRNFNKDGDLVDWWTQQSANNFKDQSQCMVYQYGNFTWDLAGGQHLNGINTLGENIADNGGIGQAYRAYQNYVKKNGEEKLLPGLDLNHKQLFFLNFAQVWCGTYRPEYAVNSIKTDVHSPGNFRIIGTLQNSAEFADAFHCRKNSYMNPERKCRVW
Experimental: Four or five 2-mm Zirconia beads (Biospec, Bartlesville, OK) were added to fresh weighed tissue specimens (50–250 mg). Assay buffer consisting of 50 mM Tris-HCl (pH 7.4), 200 mM NaCl, and 0.05% TritonX-100 was added (4 μl/mg), and the sample was homogenized for 1 minute using a bead beater (Biospec). Stored frozen homogenates were thawed at room temperature and centrifuged 10 minutes at 18,000g, and the protein concentration was determined for each supernatant. […] NEP substrate 2Abz-dArg-Gly-Leu-C2-Dnp (American Peptide, Sunnyvale, CA) was prepared at 1 mM in 20% acetonitrile/water and diluted to 100 μM in assay buffer, and 10 μl was dispensed to homogenate-containing wells. […] Kinetic data were plotted to determine the rate of product formation by linear regression with interpolation against a standard curve, and the rate was normalized to protein concentration.

[10] = test system: intestinal motility; experiment: Charcoal meal model of intestinal motility; format: in vivo, rat; conditions: oral, 30 minutes before charcoal meal, distance traveled in 20 minutes, dose not given (Fig. 5)
Experimental: Rats were fasted for 18 hours before the experiment, with free access to water. Animals were weighed, and vehicle or compounds were administered by oral gavage. […] After 30 minutes, each animal received standard charcoal meal (10% suspension of activated charcoal in 5% gum arabic) by oral gavage (5 ml/kg). Animals were given access to food within 1 minute and sacrificed 20 minutes after the charcoal meal. The intestines were carefully removed. Motility was calculated as the measured distance traveled by the charcoal as a percentage of total length from pyloric sphincter to ileocecal junction.

[11] = 1 h after single oral dose (Race 100, Candox 150, Sac 100, UK 100 mg/kg)
[12] = 5 h after single oral dose (Race 100, Candox 150, Sac 100, UK 100 mg/kg)

T1 sequence (P12821 30-1306): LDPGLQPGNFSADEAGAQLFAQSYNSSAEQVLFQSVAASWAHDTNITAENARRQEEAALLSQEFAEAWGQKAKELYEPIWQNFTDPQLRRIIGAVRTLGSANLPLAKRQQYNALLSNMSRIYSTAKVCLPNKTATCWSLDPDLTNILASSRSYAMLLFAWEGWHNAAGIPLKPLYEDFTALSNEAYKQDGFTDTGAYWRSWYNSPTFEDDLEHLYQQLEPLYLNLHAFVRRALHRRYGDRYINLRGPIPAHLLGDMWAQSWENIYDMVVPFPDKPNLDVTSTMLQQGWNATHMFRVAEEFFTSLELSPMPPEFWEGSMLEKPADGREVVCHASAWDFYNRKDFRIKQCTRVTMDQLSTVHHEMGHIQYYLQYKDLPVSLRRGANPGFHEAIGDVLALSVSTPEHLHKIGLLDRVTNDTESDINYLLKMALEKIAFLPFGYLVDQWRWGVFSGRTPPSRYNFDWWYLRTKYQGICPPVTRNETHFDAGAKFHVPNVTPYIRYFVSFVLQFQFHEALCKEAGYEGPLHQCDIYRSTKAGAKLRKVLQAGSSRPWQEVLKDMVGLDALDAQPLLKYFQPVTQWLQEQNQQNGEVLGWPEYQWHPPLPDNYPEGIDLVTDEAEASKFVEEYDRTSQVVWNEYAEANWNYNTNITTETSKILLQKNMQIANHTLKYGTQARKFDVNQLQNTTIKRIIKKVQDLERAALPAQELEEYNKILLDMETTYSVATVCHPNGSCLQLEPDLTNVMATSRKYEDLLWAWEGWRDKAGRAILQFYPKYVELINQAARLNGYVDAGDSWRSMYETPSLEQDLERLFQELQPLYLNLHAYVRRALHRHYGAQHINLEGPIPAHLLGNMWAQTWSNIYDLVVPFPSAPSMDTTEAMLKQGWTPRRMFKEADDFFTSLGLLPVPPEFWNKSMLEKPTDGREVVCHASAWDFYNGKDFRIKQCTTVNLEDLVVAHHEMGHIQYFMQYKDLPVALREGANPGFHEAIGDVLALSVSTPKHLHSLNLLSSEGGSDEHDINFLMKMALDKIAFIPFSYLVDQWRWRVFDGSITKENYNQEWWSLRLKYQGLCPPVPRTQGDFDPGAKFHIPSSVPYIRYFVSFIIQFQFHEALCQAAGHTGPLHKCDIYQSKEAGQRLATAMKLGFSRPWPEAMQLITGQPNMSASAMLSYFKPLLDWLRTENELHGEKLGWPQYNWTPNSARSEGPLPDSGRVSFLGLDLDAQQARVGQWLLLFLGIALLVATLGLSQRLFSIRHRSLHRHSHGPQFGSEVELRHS

IC50 [1]: 230 nM
IC50 [2]: 60 nM
IC50 [3]: 18 µM
IC50 [4]: 18 µM
IC50 [5]: > 100 µM
IC50 [6]: 12 µM
IC50 [7]: 77 µM
Compound: CC1(C)CCC[C@H](NC(=O)[C@@H](S)Cc2ccccc2)C(=O)N1CC(=O)O [Gemopatrilat]

IC50 [1]: 190 nM
IC50 [2]: 40 nM
IC50 [3]: 28 µM
IC50 [4]: > 100 µM
IC50 [5]: > 100 µM
IC50 [6]: 21 µM
IC50 [7]: 86 µM
Compound: O=C(N[C@H]1CCS[C@H]2CCC[C@@H](C(=O)O)N2C1=O)[C@@H](S)Cc1ccccc1 [Omapatrilat]

Compound: CC(=O)SCC(Cc1ccccc1)C(=O)NCC(=O)OCc1ccccc1 (centres unmarked) [Racecadotril]
Stool output, 150 or 240 minutes predosing ([8]; 100 mg/kg oral 150 or 240 minutes before castor oil (Fig. 4B, 4C)): Neither drug was effective
Incidence of diarrhea ([8]; dose-response study (Fig. 2A), 30 minutes before castor oil, sacubitril at highest tested dose, racecadotril 100 mg/kg): 100%
Cumulative stool output over 4 hours ([8]; single oral dose 30 minutes before castor oil, fasted rats, vs vehicle (Fig. 1)): significantly reduced
Stool output, dose-response studies ([8]; single oral treatment with varying doses (racecadotril 100 mg/kg) 30 minutes before castor oil (Fig. 2A, 2C)): significantly reduced stool output
Relative NEP inhibition, duodenum [9, 11]: 98%
Relative NEP inhibition, jejunum [9, 11]: 90%
Relative NEP inhibition, kidney [9, 11]: 56%
Relative NEP inhibition, lung [9, 11]: 75%
NEP enzyme activity in duodenum and jejunum ([9]; 1 hour after single oral 100 mg/kg dose (Fig. 3A, B)): barely detectable levels
Relative NEP inhibition, duodenum [9, 12]: 85%
Relative NEP inhibition, jejunum [9, 12]: 32%
Relative NEP inhibition, kidney [9, 12]: 39%
Relative NEP inhibition, lung [9, 12]: 59%
NEP inhibition in lung and kidney tissue after 24 hours ([9]; 24 hours after single oral 100 mg/kg dose (Fig. 3C, D)): returned to normal
Effect on intestinal transit (charcoal meal test) [10]: no effect
